Reference: paper PMC8689225, “Cardiac ryanodine receptor N-terminal region biosensors identify novel inhibitors via FRET-based high-throughput screening” (The Journal of Biological Chemistry, 2021)

Experiments:
[1] = test system: rat skeletal muscle fibers; experiment: Electrically evoked Ca2+ transients in skinned skeletal muscle fibers; assay type: cell-based; conditions: 10 μM FA or 1 mM tetracaine, 1 Hz
Excerpt: Mechanically skinned fibers were isolated, mounted in a custom chamber, and bathed in a resting physiological solution containing rhod-2, as previously described ([21]). The Ca^2+-sensitive dye rhod-2 was used to track cytosolic Ca^2+ transients when exposed to electrical stimulation. Field pulses at 1 Hz frequency and 4 ms in duration were applied across platinum electrodes parallel to the long axis of the fiber. Imaging for electrical stimulation experiments was in xt mode, at a rate of 2 ms.line^−1. DMSO vehicle (0.01%), FA (10 μM), and tetracaine were added to the physiological solution. Each treatment was applied precisely at the seventh successive Ca^2+ transient.

[2] = target: T1, RyR2 (Sus scrofa, UniProt A0A5G2R1W3); experiment: [3H]ryanodine binding to cardiac SR (CSR) vesicles; assay type: biochemical, pig
T1 construct: from tissue; host or cells: porcine cardiac left ventricle, crude SR vesicles
Method: Crude sarcoplasmic reticulum membrane vesicles were isolated from porcine longissimus dorsi muscle and porcine cardiac left ventricle tissue by differential centrifugation of homogenized tissue, as established previously ([65]). Skeletal heavy SR (HSR) vesicles, which are enriched with RyR1, were isolated by fractionation of crude skeletal SR vesicles using a discontinuous sucrose gradient, in accordance with our published work ([65]). All vesicles were flash-frozen and stored at −80 °C.
In 96-well plates, skeletal SR membranes (HSR, 1 mg/ml) and cardiac SR membranes (CSR, 3 mg/ml) were preincubated with 1% DMSO or hit compound for 30 min at 22 °C in a solution containing 150 mM KCl, 5 mM GSH, 1 μg/ml Aprotinin/Leupeptin, 1 mM EGTA, and 65 μM or 1.02 mM CaCl2 (as determined by MaxChelator to yield 30 nM or 30 μM of free Ca^2+, respectively), 0.1 mg/ml of BSA, and 20 mM K-PIPES (pH 7.0). Nonspecific [^3H]ryanodine binding to SR was assessed by addition of 40 μM nonradioactively labeled ryanodine. Maximal [^3H]ryanodine binding was assessed by addition of 5 mM adenylyl-imidodiphosphate (AMP-PNP), and in the case of CSR, 20 mM caffeine was added. These control samples were each loaded over four wells per plate. Binding of [^3H]ryanodine (7.5 and 10 nM for CSR and HSR, respectively) was determined following a 3 h incubation at 37 °C and filtration through grade GF/B glass microfiber filters (Brandel Inc) using a Brandel Harvester. In 4 ml of Ecolite scintillation cocktail (MP biomedicals), [^3H]ryanodine retained on the filter was counted using a Beckman LS6000 scintillation counter.

[3] = test system: intact mouse ventricular cardiomyocytes; experiment: Ca2+ transients in intact ventricular cardiomyocytes paced at 1 Hz; assay type: cell-based
Method: Mouse ventricular cardiomyocytes were isolated enzymatically from hearts of male C57BL/6J mouse (10–12 weeks old, Jackson Laboratory) as previously described with minor modifications ([66]). Briefly, mice were injected with heparin (500 U/kg body weight) and anesthetized with isoflurane (2 to 5%) to a verified deep surgical plane, whereupon the heart was excised, resulting in euthanasia by exsanguination. Hearts were excised and retrogradely perfused with constant flow on a Langendorff apparatus (37 °C) with Ca^2+-free normal Tyrode’s solution, gassed with 100% O2. Collagenase type II (Worthington Biochemical Co) and protease type XIV (Sigma-Aldrich) were used for enzymatic digestion. […]
Ca^2+ activity was imaged via confocal microscopy (Bio-Rad, Radiance 2100, 40× objective) in the line scan mode (166 lines/s; ex 488 nm, em >505 nm). Ca^2+ sparks were recorded from ventricular cardiomyocytes permeabilized with saponin (50 μg/ml) for 1 min in internal solution containing (in mM) 10 HEPES, 1 EGTA, 1 free MgCl2 (with free [Ca^2+] adjusted to 50 nM using MaxChelator), 120 K-aspartate, 10 reduced glutathione, 5 ATP, 5 phosphocreatine di-Na, creatine phosphokinase 5 U/ml, and dextran (MW: 40,000) 8% at pH 7.20. […] Ca^2+ spark parameters were analyzed over a 10 s period from each line scan recording. […]

T1 sequence (A0A5G2R1W3 20-4900): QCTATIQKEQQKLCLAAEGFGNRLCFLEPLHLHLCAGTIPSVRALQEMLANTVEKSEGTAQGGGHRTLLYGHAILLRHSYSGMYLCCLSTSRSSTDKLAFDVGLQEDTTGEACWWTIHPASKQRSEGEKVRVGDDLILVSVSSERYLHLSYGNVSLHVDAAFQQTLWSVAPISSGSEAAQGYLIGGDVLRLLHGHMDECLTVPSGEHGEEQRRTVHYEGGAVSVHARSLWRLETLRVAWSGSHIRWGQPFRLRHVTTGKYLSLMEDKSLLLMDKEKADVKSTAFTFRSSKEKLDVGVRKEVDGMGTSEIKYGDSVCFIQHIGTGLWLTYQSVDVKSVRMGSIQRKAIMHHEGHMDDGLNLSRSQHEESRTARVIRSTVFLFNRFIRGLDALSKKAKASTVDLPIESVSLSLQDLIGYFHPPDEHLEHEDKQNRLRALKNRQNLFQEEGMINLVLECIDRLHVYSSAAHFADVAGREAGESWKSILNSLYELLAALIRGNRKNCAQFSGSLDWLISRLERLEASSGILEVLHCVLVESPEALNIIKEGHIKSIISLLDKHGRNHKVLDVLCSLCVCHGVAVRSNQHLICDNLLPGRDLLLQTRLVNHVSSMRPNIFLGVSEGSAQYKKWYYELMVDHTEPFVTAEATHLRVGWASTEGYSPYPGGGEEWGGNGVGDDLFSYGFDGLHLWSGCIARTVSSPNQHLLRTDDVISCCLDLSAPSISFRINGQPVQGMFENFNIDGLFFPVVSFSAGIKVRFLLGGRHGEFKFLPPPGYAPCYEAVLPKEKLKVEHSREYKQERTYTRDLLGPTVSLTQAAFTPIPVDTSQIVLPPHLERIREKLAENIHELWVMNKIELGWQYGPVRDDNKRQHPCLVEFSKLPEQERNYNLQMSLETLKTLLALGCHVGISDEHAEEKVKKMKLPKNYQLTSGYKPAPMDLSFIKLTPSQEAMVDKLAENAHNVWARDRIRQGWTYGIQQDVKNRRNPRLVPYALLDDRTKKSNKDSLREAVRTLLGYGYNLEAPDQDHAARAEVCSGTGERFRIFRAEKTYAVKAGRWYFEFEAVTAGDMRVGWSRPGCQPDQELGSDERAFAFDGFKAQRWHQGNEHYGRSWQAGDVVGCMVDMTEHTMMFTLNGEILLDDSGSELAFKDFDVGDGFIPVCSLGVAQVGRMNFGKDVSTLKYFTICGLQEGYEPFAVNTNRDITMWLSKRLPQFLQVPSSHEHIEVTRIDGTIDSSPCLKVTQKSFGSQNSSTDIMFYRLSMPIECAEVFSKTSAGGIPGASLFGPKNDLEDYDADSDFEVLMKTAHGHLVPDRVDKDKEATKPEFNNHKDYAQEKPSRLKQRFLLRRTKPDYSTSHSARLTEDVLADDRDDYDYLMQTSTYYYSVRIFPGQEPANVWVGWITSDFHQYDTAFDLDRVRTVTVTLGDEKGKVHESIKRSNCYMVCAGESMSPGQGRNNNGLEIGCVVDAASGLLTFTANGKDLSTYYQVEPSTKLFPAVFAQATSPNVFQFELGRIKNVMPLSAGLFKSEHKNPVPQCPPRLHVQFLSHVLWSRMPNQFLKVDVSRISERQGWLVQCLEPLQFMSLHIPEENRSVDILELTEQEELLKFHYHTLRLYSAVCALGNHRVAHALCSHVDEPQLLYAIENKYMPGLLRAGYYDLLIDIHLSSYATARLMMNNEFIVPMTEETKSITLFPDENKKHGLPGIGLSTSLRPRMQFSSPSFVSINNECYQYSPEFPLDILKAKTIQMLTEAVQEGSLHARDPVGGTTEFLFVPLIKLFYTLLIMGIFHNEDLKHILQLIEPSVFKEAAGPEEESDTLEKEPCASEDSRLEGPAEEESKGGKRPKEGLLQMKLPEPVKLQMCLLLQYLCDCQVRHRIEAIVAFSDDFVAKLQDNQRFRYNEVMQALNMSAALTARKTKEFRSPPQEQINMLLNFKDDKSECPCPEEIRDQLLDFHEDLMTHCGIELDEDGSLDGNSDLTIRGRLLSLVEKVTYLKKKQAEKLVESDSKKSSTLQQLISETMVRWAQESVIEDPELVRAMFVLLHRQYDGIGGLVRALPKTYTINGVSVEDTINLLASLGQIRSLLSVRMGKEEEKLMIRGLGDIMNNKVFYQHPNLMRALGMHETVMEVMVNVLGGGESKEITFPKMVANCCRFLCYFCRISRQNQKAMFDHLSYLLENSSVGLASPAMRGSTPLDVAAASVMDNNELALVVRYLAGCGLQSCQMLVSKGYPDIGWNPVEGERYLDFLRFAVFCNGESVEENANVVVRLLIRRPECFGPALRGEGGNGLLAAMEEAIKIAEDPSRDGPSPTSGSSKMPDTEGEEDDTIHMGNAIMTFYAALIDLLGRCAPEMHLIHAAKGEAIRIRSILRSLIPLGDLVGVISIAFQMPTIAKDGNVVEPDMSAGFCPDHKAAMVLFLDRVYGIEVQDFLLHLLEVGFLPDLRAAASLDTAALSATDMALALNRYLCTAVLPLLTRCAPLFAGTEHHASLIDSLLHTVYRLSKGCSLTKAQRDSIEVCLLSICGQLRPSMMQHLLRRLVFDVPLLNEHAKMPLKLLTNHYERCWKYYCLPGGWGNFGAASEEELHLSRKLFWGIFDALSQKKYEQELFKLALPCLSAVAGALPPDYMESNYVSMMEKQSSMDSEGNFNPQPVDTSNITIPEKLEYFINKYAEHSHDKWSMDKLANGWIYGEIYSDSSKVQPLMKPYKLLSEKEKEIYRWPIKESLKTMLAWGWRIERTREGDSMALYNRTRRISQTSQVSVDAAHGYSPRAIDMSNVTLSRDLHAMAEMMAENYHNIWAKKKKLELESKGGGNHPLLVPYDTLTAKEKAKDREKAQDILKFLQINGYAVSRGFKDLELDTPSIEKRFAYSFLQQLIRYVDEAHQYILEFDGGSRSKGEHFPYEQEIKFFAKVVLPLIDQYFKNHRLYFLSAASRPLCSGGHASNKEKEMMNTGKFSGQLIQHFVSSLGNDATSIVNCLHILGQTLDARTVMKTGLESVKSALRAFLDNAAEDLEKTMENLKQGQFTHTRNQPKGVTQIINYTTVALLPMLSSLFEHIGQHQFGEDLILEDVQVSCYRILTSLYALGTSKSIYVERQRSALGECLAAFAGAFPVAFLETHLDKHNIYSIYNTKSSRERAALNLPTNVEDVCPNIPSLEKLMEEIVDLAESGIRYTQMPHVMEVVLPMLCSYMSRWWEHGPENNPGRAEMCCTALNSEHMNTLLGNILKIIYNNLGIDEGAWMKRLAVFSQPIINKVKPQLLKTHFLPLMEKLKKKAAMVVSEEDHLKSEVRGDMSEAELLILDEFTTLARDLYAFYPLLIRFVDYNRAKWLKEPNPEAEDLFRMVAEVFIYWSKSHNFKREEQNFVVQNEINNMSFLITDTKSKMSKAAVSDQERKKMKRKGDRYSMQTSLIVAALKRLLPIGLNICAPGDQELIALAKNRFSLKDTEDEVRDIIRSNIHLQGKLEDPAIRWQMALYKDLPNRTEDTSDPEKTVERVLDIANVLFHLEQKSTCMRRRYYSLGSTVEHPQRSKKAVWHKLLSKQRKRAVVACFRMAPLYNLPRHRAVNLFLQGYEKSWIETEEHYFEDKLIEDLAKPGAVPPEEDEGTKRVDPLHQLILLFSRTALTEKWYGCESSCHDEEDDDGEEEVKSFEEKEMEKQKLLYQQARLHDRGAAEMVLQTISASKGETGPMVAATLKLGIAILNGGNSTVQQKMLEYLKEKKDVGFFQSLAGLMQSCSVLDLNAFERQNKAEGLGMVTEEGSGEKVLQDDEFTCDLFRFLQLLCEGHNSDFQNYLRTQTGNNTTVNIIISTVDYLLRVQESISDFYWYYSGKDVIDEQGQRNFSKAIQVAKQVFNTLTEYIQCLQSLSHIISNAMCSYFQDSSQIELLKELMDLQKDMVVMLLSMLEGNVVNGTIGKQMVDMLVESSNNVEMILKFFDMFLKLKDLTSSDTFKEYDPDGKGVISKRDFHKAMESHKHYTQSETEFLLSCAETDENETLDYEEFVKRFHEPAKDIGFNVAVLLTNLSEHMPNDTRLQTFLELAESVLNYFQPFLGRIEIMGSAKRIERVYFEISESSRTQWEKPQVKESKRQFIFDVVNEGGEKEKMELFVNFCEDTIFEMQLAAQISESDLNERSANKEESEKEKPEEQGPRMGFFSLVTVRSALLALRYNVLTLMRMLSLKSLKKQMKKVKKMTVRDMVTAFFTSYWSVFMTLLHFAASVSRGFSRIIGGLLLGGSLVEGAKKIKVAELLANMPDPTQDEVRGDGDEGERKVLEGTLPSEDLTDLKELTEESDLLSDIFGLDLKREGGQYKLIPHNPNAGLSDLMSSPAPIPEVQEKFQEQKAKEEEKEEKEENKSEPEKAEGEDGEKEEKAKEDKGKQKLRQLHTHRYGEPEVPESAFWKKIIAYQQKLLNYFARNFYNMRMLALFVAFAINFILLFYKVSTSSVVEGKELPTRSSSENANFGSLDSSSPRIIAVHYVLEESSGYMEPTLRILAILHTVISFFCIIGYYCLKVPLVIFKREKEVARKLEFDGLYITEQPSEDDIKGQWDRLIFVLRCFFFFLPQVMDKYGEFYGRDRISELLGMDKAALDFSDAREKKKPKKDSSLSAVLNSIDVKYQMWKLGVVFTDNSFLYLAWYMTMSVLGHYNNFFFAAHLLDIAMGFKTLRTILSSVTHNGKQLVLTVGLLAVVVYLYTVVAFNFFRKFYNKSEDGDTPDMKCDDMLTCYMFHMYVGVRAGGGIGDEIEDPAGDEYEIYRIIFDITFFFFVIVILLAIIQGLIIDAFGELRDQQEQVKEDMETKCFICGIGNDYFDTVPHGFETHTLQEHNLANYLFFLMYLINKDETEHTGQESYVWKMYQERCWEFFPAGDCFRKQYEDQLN

CC(=O)O[C@H]1C[C@@]2(C)[C@@H](C[C@@H](O)[C@H]3[C@@]4(C)CC[C@@H](O)[C@@H](C)[C@@H]4CC[C@@]32C)/C1=C(\CCC=C(C)C)C(=O)O [FA, (2Z)-2-[(3R,4S,5S,8S,9S,10S,11R,13R,14S,16S)-16-acetyloxy-3,11-dihydroxy-4,8,10,14-tetramethyl-2,3,4,5,6,7,9,11,12,13,15,16-dodecahydro-1H-cyclopenta[a]phenanthren-17-ylidene]-6-methylhept-5-enoic acid]
electrically induced Ca2+ transient amplitude [1]: did not have an effect | EC50 ([2]; [Ca2+] 30 nM, Table S4, read-out: EC50, [3H]ryanodine binding, cardiac SR): 1.7 µM | effect on [3H]ryanodine binding to RyR2 ([2]; cardiac SR, 30 μM Ca2+): slight activation at high concentrations | cardiomyocytes with arrhythmogenic Ca2+ events (total paired measures) ([3]; FA across all concentrations tested (0.01–10 μM), 6 min): 10 of 12 | Ca2+ transient amplitudes ([3]; even at very low [FA] (0.01 μM), pacing 1 Hz): some diminution
